Seven compounds from ChEMBL document CHEMBL1201862, “PubChem BioAssay data set” (2004) can be followed below.

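Cultured in 96-well plates, cells were exposed to test compound for 48 hours across five concentrations. GI50 is the concentration that inhibits growth by half.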 Calls of active or inactive are those of the source. Cut-off read from the data, not from the text of the source: active = GI50 up to about 1.1 µM and inactive = higher.

Test systems include MDA-MB-231; HL-60; SF-268; BT-549; TK-10; UO-31; MOLT-4; SF-539; NCI/ADR-RES; RXF 393; CAKI-1; SF-295; HOP-62; ACHN; NCI-H522; EKVX; M14; UACC-62; U-251; CCRF-CEM.
Common to all, as to assay: growth of human tumour cells (NCI), 48 h

Regarding `CC(C)[Si]1(C(C)C)OCC2OC(n3c(C(=O)c4ccccc4)cc(=O)[nH]c3=O)CC2O[Si](C(C)C)(C(C)C)O1` (stereo not given), the GI50 was 2.37 µM (inactive) with MDA-MB-231; 2.67 µM (inactive) with HL-60; 2.78 µM (inactive) in the assay with SF-268; 4.69 µM (inactive) with BT-549; 3.24 µM (inactive) in the assay on TK-10; 2.47 µM (inactive) in the assay with UO-31. Further, the GI50 was 1.88 µM (inactive) in the assay on MOLT-4; 2.88 µM (inactive) in the assay on SF-539; 10.2 µM (inactive) in the assay on NCI/ADR-RES; 2.54 µM (inactive) in the assay with RXF 393; 5.53 µM (inactive) in the assay on CAKI-1; 3.78 µM (inactive) with SF-295. The GI50 with HOP-62 was 7.03 µM (inactive); in the assay with ACHN, 3.16 µM (inactive); in the assay on NCI-H522, 1.7 µM (inactive); in the assay on EKVX, 3.71 µM (inactive); in the assay on M14, 3.66 µM (inactive); in the assay on UACC-62, 2.81 µM (inactive). Besides, the GI50 with U-251 is 3.15 µM (inactive); with CCRF-CEM it was 2.12 µM (inactive).
In the case of `COP(=O)(CC(=O)C1OC(OCc2ccccc2)C(OCc2ccccc2)C(OCc2ccccc2)C1OCc1ccccc1)OC` (stereo not given), the GI50 was 10.2 µM (inactive) in the assay with MDA-MB-231; 4.39 µM (inactive) in the assay on HL-60; 12.8 µM (inactive) in the assay with SF-268; 17.4 µM (inactive) with BT-549; 15.3 µM (inactive) in the assay on TK-10; 2.94 µM (inactive) with UO-31. For the same compound, the GI50 in the assay with MOLT-4 is 2.69 µM (inactive); with SF-539 it was 12.8 µM (inactive); with NCI/ADR-RES it was 4.16 µM (inactive); in the assay with RXF 393, 2.62 µM (inactive); with CAKI-1, 4.7 µM (inactive); with SF-295, 5.36 µM (inactive). The GI50 in the assay on HOP-62 was 20.1 µM (inactive); in the assay with ACHN it was 5.71 µM (inactive); in the assay with NCI-H522, 9.51 µM (inactive); in the assay on EKVX, 8.07 µM (inactive); in the assay with M14, 10.9 µM (inactive); in the assay with UACC-62, 4.12 µM (inactive). Moreover, the GI50 is 6.37 µM (inactive) in the assay with U-251 and 4.76 µM (inactive) in the assay on CCRF-CEM.
On to `CNC(=O)[C@H](Cc1ccccc1)NC(=O)N(CCC#N)CCN(C(=O)N[C@@H](Cc1ccccc1)C(=O)OC)c1ccccc1`, for which the GI50 in the assay with MDA-MB-231, in the assay on HL-60, in the assay on SF-268, with BT-549, with TK-10 and in the assay with UO-31 was > 100 µM (inactive) in each case. The GI50 in the assay with MOLT-4, with SF-539, in the assay on NCI/ADR-RES, in the assay with RXF 393, in the assay on CAKI-1 and in the assay with SF-295 was > 100 µM (inactive) in each case. Moreover, the GI50 in the assay on HOP-62, in the assay on ACHN, in the assay on NCI-H522, in the assay on EKVX, in the assay on M14 and in the assay with UACC-62 was > 100 µM (inactive) throughout. The GI50 in the assay with U-251 and with CCRF-CEM was > 100 µM (inactive) in each case.
Take `C[As](C)SCC(NC(=O)CCC(N)C(=O)O)C(=O)NCC(=O)O.c1ccncc1` (stereo not given): the GI50 was 0.261 µM (active) in the assay with MDA-MB-231; 0.0578 µM (active) in the assay on HL-60; 0.547 µM (active) in the assay with SF-268; 0.168 µM (active) in the assay with BT-549; 0.202 µM (active) in the assay on TK-10; 0.182 µM (active) in the assay on UO-31. In addition, the GI50 is 3.51 µM (inactive) in the assay on MOLT-4; 0.105 µM (active) in the assay with SF-539; 0.141 µM (active) in the assay on NCI/ADR-RES; 0.0471 µM (active) in the assay with RXF 393; 0.0662 µM (active) in the assay on CAKI-1; 3.23 µM (inactive) in the assay on SF-295. In addition, the GI50 with HOP-62 was 0.885 µM (active); in the assay with ACHN, 0.117 µM (active); in the assay on NCI-H522 it was 0.0824 µM (active); in the assay on EKVX it was 0.182 µM (active); in the assay on M14, 0.22 µM (active); in the assay on UACC-62 it was 0.269 µM (active). Further, the GI50 was 0.902 µM (active) in the assay on U-251 and 0.0492 µM (active) in the assay on CCRF-CEM.
With `O=C(O)c1cc(/N=N/c2ccc([N+](=O)[O-])cc2)ccc1O`, the GI50 with MDA-MB-231 was 26.9 µM (inactive); in the assay on HL-60, 29 µM (inactive); in the assay with SF-268, 35.6 µM (inactive); in the assay on BT-549 it was 42.4 µM (inactive); in the assay with TK-10, 25.6 µM (inactive); in the assay with UO-31, 16.6 µM (inactive). For the same compound, the GI50 with MOLT-4 was 24.8 µM (inactive); in the assay with SF-539, 33.3 µM (inactive); in the assay with NCI/ADR-RES it was 30.8 µM (inactive); in the assay with RXF 393, 42.3 µM (inactive); in the assay with CAKI-1 it was 29.2 µM (inactive); with SF-295 it was 32.3 µM (inactive). Further, the GI50 with HOP-62 was 40.6 µM (inactive); in the assay on ACHN, 37.3 µM (inactive); with NCI-H522, 28 µM (inactive); with EKVX, 19 µM (inactive); in the assay with M14, 39.4 µM (inactive); in the assay on UACC-62, 31.3 µM (inactive). In addition, the GI50 with U-251 was 21.6 µM (inactive); in the assay with CCRF-CEM it was 28.4 µM (inactive).
On to `C[n+]1c(-c2ccc(/C=N/NC(=O)c3ccc(C(=O)N/N=C/c4ccc(-c5cn6ccccc6[n+]5C)cc4)cc3)cc2)cn2ccccc21`, for which the GI50 is > 74.3 µM (inactive) in the assay on MDA-MB-231; > 100 µM (inactive) in the assay with HL-60; > 100 µM (inactive) in the assay on SF-268; > 100 µM (inactive) in the assay on BT-549; > 83.4 µM (inactive) in the assay on TK-10; > 59.8 µM (inactive) with UO-31. The GI50 with MOLT-4 was > 100 µM (inactive); with SF-539, > 84.9 µM (inactive); with NCI/ADR-RES, > 100 µM (inactive); in the assay on RXF 393, > 61.9 µM (inactive); with CAKI-1, > 72.9 µM (inactive); in the assay on SF-295 it was > 100 µM (inactive). For the same compound, the GI50 was > 100 µM (inactive) in the assay on HOP-62; > 73.3 µM (inactive) in the assay with ACHN; > 100 µM (inactive) in the assay with NCI-H522; > 100 µM (inactive) in the assay with EKVX; 98.6 µM (inactive) with M14; > 81.8 µM (inactive) in the assay with UACC-62. For the same compound, the results for the GI50 in the assay on U-251 and in the assay on CCRF-CEM were > 100 µM (inactive) and > 34.3 µM (inactive), respectively.
As to `O=c1c(Cc2ccccc2Cc2c(O)oc3ccccc3c2=O)c(O)oc2ccccc12`, the GI50 with MDA-MB-231, in the assay with HL-60, in the assay on SF-268, in the assay with BT-549, in the assay on TK-10 and with UO-31 was > 100 µM (inactive) in each case. Also, the GI50 in the assay on MOLT-4, in the assay on SF-539, in the assay with NCI/ADR-RES, in the assay with RXF 393, in the assay with CAKI-1 and in the assay with SF-295 was > 100 µM (inactive) in each case. For the same compound, the GI50 in the assay on HOP-62, with ACHN, in the assay on NCI-H522, with EKVX, with M14 and in the assay with UACC-62 was > 100 µM (inactive) each time. In addition, the GI50 with U-251 and in the assay on CCRF-CEM was > 100 µM (inactive) each time.
